Assay results as given in PubChem BioAssay (NCI).
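Growth conditions: 96-well plates. Treatment: test compound, 48 hours, 5 concentrations. Analysis: linear interpolation between bracketing concentrations; unreached endpoints set to highest concentration. At the TGI there is no net growth.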

Columns and labels:
Assay in all cases: NCI-60 cell line screen, 48 h
[1] = test system: SF-268 CNS
[2] = test system: CCRF-CEM leukemia
[3] = test system: SF-295 CNS
[4] = test system: SF-539 CNS
[5] = test system: HCT-15 colon
[6] = test system: K-562 leukemia
[7] = test system: A549 NSCLC
[8] = test system: CAKI-1 renal
[9] = test system: UO-31 renal
[10] = test system: NCI-H460 lung
[11] = test system: OVCAR-3 ovarian
[12] = test system: SNB-78 CNS
[13] = test system: EKVX NSCLC
[14] = test system: COLO 205 colon
[15] = test system: OVCAR-4 ovarian
[16] = test system: KM20L2 colon
[17] = test system: SK-MEL-28 melanoma
[18] = test system: OVCAR-5 ovarian
[19] = test system: DMS 114 small cell lung
[20] = test system: MALME-3M melanoma
[21] = test system: OVCAR-8 ovarian
[22] = test system: LXFL 529 NSCLC
[23] = test system: TK-10 renal
[24] = test system: HL-60(TB) leukemia
[25] = test system: ACHN renal
[26] = test system: NCI-H522 lung
[27] = test system: HT29 colon
[28] = test system: DLD-1 colon
[29] = test system: RXF 393 renal
[30] = test system: NCI-H23 lung
[31] = test system: SK-MEL-5 melanoma
[32] = test system: SK-OV-3 ovarian
[33] = test system: XF 498 CNS
[34] = test system: RPMI-8226 leukemia
[35] = test system: IGROV1 ovarian
[36] = test system: UACC-62 melanoma
[37] = test system: DMS 273 small cell lung
[38] = test system: SN12C renal
[39] = test system: SNB-75 CNS
[40] = test system: SW-620 colon
[41] = test system: SK-MEL-2 melanoma
[42] = test system: 786-0 renal
[43] = test system: UACC-257 melanoma
[44] = test system: HCC-2998 colon
[45] = test system: HOP-62 NSCLC
[46] = test system: HOP-92 NSCLC
[47] = test system: MOLT-4 leukemia
[48] = test system: M19-MEL melanoma
[49] = test system: M14 melanoma
[50] = test system: KM12 colon
[51] = test system: SNB-19 CNS
[52] = test system: RXF-631 renal
[53] = test system: LOX IMVI melanoma
[54] = test system: HOP-18 NSCLC
[55] = test system: HCT-116 colon
[56] = test system: A498 renal
[57] = test system: NCI-H226 lung
[58] = test system: U251 CNS
[59] = test system: SR leukemia

Measured: TGI

CC(C)(C)C(C#N)(C#N)c1ccc(C(C#N)(C#N)C(C)(C)C)nn1
75.2 µM: [39]
not listed: [54] | [55] | [56] | [57] | [58] | [59]
> 100 µM: all other assays above

CC(=O)O[C@H]1CC[C@@]2(C)C(=CC[C@@H]3C2CC[C@]2(C)Nc4nc5ccccc5cc4CC32)C1 (stereo not given in full)
5.03 µM: [49]
15.4 µM: [31]
31.7 µM: [41]
18.5 µM: [33]
13.9 µM: [3]
26.6 µM: [30]
17.5 µM: [10]
8.01 µM: [5]
10.8 µM: [44]
13 µM: [43]
5.09 µM: [29]
12.9 µM: [7] | [50]
15.6 µM: [28]
21.1 µM: [12]
8.25 µM: [57]
3.66 µM: [16]
18 µM: [19]
18.4 µM: [8]
24.1 µM: [26]
20.1 µM: [38]
22.9 µM: [36]
11.6 µM: [6]
7.2 µM: [40]
26.7 µM: [45]
8.68 µM: [39]
13.8 µM: [37]
8.53 µM: [11]
12 µM: [4] | [22]
18.9 µM: [56]
16.9 µM: [9] | [25]
18.8 µM: [13]
3.8 µM: [55]
13.5 µM: [54]
21.4 µM: [15]
42.1 µM: [34]
3.68 µM: [27]
11.7 µM: [47]
21.7 µM: [20]
20.9 µM: [14]
18.1 µM: [23]
7.89 µM: [51]
10.7 µM: [42]
10.9 µM: [21]
30 µM: [35]
12.2 µM: [48]
26.9 µM: [18]
7.58 µM: [58]
14.9 µM: [1]
14 µM: [2]
8.4 µM: [32]
17.7 µM: [24]

NC(=O)NC1C(C(N)=O)N(Cc2ccccc2)C(=O)N1Cc1ccccc1 (stereo not given)
not listed: [29] | [38] | [56] | [57]
> 100 µM: all other assays above

CC(=O)NC(CC(C)C)C(=O)NC(Cc1ccccc1)C(=S)N1CCCC1 (stereo not given)
not listed: [4] | [12] | [28] | [54] | [55] | [59]
> 100 µM: all other assays above
